2 molecules from PMC3325759 (Journal of Natural Products, 2011) can be followed below.

What is called EC50 is the midpoint of the concentration-response curve.

In data set [1] the target is human recombinant CB1 receptor (Homo sapiens, UniProt P21554). Briefly: biochemical. In kind it is binding.
Data set [2] deals with H-460 human lung cell lines. Kind of data set: Cytotoxicity to H-460 cells. In kind it is cell-based. The settings on record: all tested concentrations (up to 20 µg/mL).

Chain of human recombinant CB1 receptor (P21554 whole entry): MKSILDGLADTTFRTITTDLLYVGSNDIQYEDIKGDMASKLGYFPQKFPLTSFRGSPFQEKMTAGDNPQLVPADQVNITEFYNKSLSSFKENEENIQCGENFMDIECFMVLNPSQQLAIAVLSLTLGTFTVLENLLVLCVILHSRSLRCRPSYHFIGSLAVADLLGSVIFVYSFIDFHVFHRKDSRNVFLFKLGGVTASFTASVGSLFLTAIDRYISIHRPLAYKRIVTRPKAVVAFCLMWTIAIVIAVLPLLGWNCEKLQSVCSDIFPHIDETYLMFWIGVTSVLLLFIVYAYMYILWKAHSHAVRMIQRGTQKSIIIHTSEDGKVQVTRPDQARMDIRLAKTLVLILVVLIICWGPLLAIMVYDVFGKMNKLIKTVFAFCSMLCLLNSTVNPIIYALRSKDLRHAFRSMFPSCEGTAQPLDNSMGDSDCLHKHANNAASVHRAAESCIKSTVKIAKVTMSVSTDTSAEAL

Turning to `C=C(CCCCCCCCCCCCC)CCCC(=O)O/C=C\COC(C)=O` [compound 4, propenediester], the “affinity for the CB1 cannabinoid receptor (in words)” value in data set [1] (radioligand binding assay) was “completely inactive”. In data set [2], the “cytotoxicity (in words)” value is “inactive”. For `CCCCCCCCCCCCC/C=C/CCC(=O)N(C)[C@H](CO)COC` [compound 3, serinolamide A], the EC50 in data set [1] was determined as 2300 nM.
